According to ChEMBL document CHEMBL1201862, “PubChem BioAssay data set” (2004):
Active and inactive are the calls of the source.

Key:
[1] = viability of uninfected HEp-2 cells – cell-based, HTS, cytotoxicity control for RSV inhibitor project, dose response (AID 2410); type: functional; settings: human respiratory syncytial virus
[2] = microbe, parasite or virus in culture; type: functional; settings: Mycobacterium tuberculosis
[3] = molecular target: T1, Leucine aminopeptidase (Plasmodium falciparum 3D7, UniProt Q8IL11); test: P. falciparum M17LAP inhibitors, primary screen, biochemical, fluorogenic H-Leu-NHMec substrate, 1536-well (AID 1619); type: functional
T1 sequence (Q8IL11 whole entry): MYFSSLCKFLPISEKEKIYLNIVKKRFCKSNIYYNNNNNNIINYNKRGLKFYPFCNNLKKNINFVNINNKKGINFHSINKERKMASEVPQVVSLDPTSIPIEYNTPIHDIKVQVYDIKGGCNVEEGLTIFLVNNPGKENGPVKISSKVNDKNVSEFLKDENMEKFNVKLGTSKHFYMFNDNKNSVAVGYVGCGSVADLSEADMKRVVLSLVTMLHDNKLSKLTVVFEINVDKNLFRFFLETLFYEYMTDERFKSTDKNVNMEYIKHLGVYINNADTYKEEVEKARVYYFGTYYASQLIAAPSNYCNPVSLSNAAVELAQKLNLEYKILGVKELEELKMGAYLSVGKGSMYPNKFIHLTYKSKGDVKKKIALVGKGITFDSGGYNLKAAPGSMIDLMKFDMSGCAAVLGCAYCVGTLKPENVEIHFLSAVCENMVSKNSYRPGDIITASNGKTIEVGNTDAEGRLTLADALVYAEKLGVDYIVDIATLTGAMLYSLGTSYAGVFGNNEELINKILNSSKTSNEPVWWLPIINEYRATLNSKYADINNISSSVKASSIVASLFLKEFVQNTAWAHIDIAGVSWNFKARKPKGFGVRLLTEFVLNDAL

[4] = molecular target: Glyceraldehyde-3-phosphate dehydrogenase (Homo sapiens, UniProt P04406)
[5] = system: Vero; test: mammalian cell viability reduction – secondary assay, cytotoxicity control for West Nile virus antiviral project, dose response (AID 1650); type: functional; settings: Chlorocebus sabaeus
[6] = Luminescence Cell-Based Dose Retest to Confirm Inhibitors of Cancer Stem Cells. [Related pubchem assays (depositor defined):AID2717, AID2721]; type: functional; settings: Homo sapiens
[7] = system: Vero; test: cells; type: functional; settings: Chlorocebus sabaeus
[8] = molecular target: T2, Aminopeptidase N (Plasmodium falciparum FcB1/Columbia, UniProt O96935); test: malaria alanyl aminopeptidase activity blockers – biochemical, fluorogenic H-Leu-NHMec substrate, 1536-well (AID 1445); design: species or system Plasmodium falciparum 3D7, 3D7
T2 sequence (O96935 whole entry): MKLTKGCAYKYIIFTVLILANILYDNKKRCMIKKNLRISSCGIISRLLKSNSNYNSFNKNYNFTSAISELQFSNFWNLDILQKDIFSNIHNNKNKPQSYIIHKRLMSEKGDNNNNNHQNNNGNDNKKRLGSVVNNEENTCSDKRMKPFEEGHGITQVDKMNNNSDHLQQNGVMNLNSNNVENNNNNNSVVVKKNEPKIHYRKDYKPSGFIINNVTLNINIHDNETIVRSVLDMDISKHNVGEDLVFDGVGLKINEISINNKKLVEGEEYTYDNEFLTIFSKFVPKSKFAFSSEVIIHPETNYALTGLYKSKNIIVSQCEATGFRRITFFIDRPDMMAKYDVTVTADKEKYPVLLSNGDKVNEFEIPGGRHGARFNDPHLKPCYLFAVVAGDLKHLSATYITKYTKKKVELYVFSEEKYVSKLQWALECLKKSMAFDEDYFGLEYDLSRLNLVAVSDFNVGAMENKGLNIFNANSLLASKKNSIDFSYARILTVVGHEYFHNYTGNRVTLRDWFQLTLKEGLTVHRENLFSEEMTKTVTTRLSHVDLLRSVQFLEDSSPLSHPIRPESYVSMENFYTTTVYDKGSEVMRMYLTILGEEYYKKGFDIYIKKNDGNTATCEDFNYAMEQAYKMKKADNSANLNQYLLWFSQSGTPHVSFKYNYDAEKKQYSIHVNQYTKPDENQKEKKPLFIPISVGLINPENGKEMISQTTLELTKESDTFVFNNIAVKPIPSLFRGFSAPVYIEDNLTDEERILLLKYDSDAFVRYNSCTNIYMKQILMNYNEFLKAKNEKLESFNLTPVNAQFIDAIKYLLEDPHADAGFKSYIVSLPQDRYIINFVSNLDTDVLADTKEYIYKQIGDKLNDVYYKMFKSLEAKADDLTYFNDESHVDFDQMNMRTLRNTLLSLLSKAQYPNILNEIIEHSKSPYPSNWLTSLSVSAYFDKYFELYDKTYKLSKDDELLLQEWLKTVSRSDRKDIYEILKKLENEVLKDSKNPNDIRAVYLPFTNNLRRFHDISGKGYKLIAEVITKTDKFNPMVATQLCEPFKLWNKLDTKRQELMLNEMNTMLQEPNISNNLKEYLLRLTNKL

[9] = molecular target: Large T antigen (Simian virus 40, UniProt P03070); type: functional, Betapolyomavirus macacae;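 note: Confirmatory-stage PubChem screen for compounds that inhibit SV40 T antigen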
[10] = molecular target: T3, Mannose-6-phosphate isomerase (Homo sapiens, UniProt P34949); test: MPI inhibition at elevated mannose 6-phosphate – biochemical, fluorescence intensity, high mannose 6-phosphate, primary screen (AID 1220)
T3 sequence (P34949 whole entry): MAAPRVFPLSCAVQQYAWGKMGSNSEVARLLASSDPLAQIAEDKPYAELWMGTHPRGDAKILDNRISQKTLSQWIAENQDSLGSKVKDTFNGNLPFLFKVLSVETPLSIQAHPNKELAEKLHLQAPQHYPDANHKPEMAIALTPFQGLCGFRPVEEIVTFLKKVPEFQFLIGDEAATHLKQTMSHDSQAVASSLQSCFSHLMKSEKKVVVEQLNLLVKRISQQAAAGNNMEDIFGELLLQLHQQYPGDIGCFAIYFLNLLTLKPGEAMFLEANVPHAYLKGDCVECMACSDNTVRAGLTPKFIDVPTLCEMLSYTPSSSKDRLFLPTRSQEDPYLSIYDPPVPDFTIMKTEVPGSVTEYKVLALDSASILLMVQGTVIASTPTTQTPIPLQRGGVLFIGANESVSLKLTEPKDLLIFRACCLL

[11] = molecular target: Genome polyprotein (dengue virus type 2, UniProt P29990); test: flavivirus cap methylation enzyme inhibition – biochemical, confirmation dose response, primary screen (AID 588689); type: functional
[12] = molecular target: T4, Rac GTPase-activating protein 1 (Homo sapiens, UniProt Q9H0H5); test: blockers of MgcRacGAP-driven Rac1 GTP hydrolysis – biochemical, ADP Hunter fluorescence, primary and confirmatory, confirmation (AID 624330); type: functional
T4 sequence (Q9H0H5 whole entry): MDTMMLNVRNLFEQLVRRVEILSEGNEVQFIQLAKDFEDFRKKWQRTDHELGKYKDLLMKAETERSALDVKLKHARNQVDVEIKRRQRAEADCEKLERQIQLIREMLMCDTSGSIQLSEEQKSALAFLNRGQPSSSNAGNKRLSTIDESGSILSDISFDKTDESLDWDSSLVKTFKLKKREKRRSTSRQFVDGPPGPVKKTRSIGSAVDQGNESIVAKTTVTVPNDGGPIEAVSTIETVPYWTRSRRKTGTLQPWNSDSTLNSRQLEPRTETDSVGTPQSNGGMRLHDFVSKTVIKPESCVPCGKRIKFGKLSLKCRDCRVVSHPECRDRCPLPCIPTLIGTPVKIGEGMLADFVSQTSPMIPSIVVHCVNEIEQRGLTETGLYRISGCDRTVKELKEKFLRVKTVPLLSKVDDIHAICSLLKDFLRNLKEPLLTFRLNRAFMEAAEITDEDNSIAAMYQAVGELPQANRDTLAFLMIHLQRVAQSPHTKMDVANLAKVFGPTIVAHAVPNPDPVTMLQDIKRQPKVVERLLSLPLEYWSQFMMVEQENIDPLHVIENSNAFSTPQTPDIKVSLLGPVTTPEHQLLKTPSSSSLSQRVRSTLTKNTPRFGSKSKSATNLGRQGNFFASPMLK
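Throughout, for AC50: cells exposed to compound for roughly 70 hours or longer before luminescence read.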

Chain of Glyceraldehyde-3-phosphate dehydrogenase (P04406 whole entry): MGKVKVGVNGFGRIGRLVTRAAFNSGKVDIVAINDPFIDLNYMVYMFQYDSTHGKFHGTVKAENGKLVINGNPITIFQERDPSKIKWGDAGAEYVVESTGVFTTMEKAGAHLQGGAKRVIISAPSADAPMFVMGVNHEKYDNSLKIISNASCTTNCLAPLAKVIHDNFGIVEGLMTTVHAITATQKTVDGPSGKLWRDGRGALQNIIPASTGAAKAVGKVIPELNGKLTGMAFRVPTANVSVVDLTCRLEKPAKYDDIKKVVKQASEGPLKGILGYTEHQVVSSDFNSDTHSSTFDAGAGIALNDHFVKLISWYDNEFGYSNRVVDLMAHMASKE
Chain of Genome polyprotein (P29990 2492-3391 limits assumed): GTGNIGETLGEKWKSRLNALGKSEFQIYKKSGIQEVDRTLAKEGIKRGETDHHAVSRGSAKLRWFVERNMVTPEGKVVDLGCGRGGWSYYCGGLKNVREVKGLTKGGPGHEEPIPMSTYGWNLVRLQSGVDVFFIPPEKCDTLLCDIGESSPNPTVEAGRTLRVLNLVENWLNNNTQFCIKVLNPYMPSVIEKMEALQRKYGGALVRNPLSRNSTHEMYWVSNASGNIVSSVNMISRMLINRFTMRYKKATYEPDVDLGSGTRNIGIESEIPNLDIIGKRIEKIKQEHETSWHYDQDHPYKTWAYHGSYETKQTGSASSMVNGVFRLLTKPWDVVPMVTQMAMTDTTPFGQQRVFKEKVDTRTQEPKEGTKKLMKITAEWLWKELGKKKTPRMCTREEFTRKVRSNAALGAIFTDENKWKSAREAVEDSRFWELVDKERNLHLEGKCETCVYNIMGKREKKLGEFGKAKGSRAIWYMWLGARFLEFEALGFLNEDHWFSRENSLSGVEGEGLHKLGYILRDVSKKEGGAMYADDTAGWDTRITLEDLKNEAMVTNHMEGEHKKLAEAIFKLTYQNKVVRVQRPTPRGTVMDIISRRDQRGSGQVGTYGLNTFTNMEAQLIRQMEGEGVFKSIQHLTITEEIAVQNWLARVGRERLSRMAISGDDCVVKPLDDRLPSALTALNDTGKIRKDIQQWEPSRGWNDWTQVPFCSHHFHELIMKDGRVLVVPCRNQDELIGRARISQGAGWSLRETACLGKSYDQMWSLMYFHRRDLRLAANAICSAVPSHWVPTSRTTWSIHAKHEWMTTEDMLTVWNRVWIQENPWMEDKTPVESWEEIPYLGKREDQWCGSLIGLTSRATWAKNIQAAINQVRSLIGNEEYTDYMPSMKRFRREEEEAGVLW
Chain of Large T antigen (P03070 whole entry): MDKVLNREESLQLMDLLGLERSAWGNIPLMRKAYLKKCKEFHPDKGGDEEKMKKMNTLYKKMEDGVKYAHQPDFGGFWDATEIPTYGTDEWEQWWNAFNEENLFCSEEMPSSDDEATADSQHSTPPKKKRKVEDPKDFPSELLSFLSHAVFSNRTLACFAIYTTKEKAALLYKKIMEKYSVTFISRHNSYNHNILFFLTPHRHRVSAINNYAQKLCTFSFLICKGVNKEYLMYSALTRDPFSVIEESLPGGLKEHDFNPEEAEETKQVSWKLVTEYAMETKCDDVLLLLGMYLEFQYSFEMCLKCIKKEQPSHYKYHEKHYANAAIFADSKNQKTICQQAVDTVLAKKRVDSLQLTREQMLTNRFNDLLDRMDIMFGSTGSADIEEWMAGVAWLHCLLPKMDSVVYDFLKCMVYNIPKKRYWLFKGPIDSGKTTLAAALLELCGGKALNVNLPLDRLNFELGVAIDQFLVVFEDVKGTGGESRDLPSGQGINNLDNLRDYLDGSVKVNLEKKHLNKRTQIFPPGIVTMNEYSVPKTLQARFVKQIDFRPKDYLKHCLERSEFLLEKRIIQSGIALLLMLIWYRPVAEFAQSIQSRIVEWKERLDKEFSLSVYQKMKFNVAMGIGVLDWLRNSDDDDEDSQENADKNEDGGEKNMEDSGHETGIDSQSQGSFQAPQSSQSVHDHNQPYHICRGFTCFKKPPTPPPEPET

With CCCCOc1ccc(C(=O)N/N=C/c2ccc(OCCN3CCCCC3)c(OC)c2)cc1 the CC50 [1] was 16.1 µM (active) and the CC50 [2] was 18.9 µM (active).
For Cc1nc2c([nH]1)OC(N)=C(C#N)C21CCN(Cc2ccccc2)CC1, the IC50 [3] was 63.2 µM (active).
With CCCCN1C(=O)C2Cc3c([nH]c4ccccc34)CN2C1=S (centres undefined) the CC50 [1] was 20.8 µM (active).
With COc1cccc(S(=O)(=O)Nc2cnc3ccccc3c2)c1 the IC50 [4] was > 100 µM (not active).
For O=C(c1c[nH]c2ccccc12)C(Cl)c1ccccc1 (centres undefined), the CC50 [5] was 66.6 µM (active), the AC50 [6] was 1.74 µM (active) and the CC50 [7] was > 25 µM (active).
With CC1=NOC(=O)/C1=C\c1ccc(-c2ccc(Cl)c(C(=O)O)c2)o1 the IC50 [8] was 17.4 µM (active), the IC50 [9] was 14.2 µM (active) and the IC50 [10] was > 50 µM (not active). The IC50 [11] was 15.3 µM (active) and the IC50 [12] was 141 µM (active).
With O=C(Nc1nncs1)c1cccc(S(=O)(=O)N2CCCC2)c1 the IC50 [4] was > 100 µM (not active).
